Measurements: publication PMC7689640, “Analysis of the efficacy of HIV protease inhibitors against SARS-CoV-2′s main protease” (Virology Journal, 2020)
Where two headings read alike, the source gives them in different places.

What was measured:
[1] = patient's serum under antiretroviral treatment; cited from earlier work
[2] = tested on: HEK-293 T cells; assay: Cell viability assay (MTT); settings: for Cytotoxicity: HEK-293 T cells; for Tolerability by HEK-293 T cells: high concentrations
[3] = biological target: SARS-CoV-2 M^pro (Severe acute respiratory syndrome coronavirus 2, UniProt P0DTD1); assay: Inhibition profiling in cell culture (dark-to-bright GFP reporter substrate, flow cytometry); type: cell-based; settings: for Inhibition of SARS-CoV-2 M^pro in cell culture: 200 micromolar concentration of the inhibitors, HEK-293 T cells
[4] = tested on: SARS-CoV-2; set-up: method as in PMID 32147628; settings: in vitro; cited from earlier work
[5] = tested on: MERS-CoV; settings: Calu-3 cells; cited from earlier work
[6] = tested on: SARS-CoV-2; settings: Vero E6 cells; cited from earlier work
[7] = tested on: SARS-associated coronavirus; settings: combination of lopinavir/ritonavir and ribavirin; cited from earlier work
[8] = HEK-293 T cells co-transfected with CoV-2 M^pro and PR-Sub plasmids, 24 h, GFP fluorescence, triplicate experiments, read-out: IC50

In the case of `COC(=O)N[C@H](C(=O)N[C@@H](Cc1ccccc1)[C@@H](O)CN(Cc1ccc(-c2ccccn2)cc1)NC(=O)[C@@H](NC(=O)OC)C(C)(C)C)C(C)(C)C` [Atazanavir, atazanavir], the “Minimum concentration (Cmin)” value [1] is listed as < 1 µM, the Cytotoxicity ([2]; concentration of 200 µM) is listed as “cytotoxicity was not observed” and the “Tolerability by HEK-293 T cells” value [2] is listed as “well tolerated”. It also gave an IC50 [3, 8] of 60.7 µM.
For `CC(C)CN(C[C@@H](O)[C@H](Cc1ccccc1)NC(=O)O[C@H]1CO[C@H]2OCC[C@H]21)S(=O)(=O)c1ccc(N)cc1` [Darunavir, darunavir], the “Concentration inhibiting SARS-CoV-2 replication” value [4] is given as 300 µM, the “Tolerability by HEK-293 T cells” value [2] is given as “well tolerated” and the IC50 ([3]; read-out: IC50) is given as 36.1 µM.
In the case of `Cc1cccc(C)c1OCC(=O)N[C@@H](Cc1ccccc1)[C@@H](O)C[C@H](Cc1ccccc1)NC(=O)[C@H](C(C)C)N1CCCNC1=O` [Lopinavir, lopinavir], the IC50 [5] is listed as 11.6 µM, the Cytotoxicity ([2]; concentrations above 50 µM) is listed as 90% and the IC50 [3] is listed as “Indeterminable”.
In the case of `Cc1c(O)cccc1C(=O)N[C@@H](CSc1ccccc1)[C@H](O)CN1C[C@H]2CCCC[C@H]2C[C@H]1C(=O)NC(C)(C)C` [Nelfinavir, nelfinavir], the IC50 [3] is reported as > 200 µM and the “Inhibition of SARS-CoV-2 M^pro in cell culture” value [3] is reported as “failed to inhibit”.
For `CC(C)c1nc(CN(C)C(=O)N[C@H](C(=O)N[C@@H](Cc2ccccc2)C[C@H](O)[C@H](Cc2ccccc2)NC(=O)OCc2cncs2)C(C)C)cs1` [Ritonavir, ritonavir], the IC50 [5] is given as 24.9 µM, the Cytotoxicity ([2]; concentrations above 50 µM) is given as > 50% and the “Inhibition of viral replication” value [6] is given as “no inhibition of viral replication”.
In the case of `CC(C)(C)NC(=O)[C@@H]1C[C@@H]2CCCC[C@@H]2CN1C[C@@H](O)[C@H](Cc1ccccc1)NC(=O)[C@H](CC(N)=O)NC(=O)c1ccc2ccccc2n1` [Saquinavir, saquinavir], the “Minimum concentration (Cmin)” value [1] is given as 3.8 µM, the Cytotoxicity ([2]; concentrations above 50 µM) is given as > 50% and the IC50 [3] is given as 31.4 µM.
In the case of `CCC[C@@]1(CCc2ccccc2)CC(O)=C([C@H](CC)c2cccc(NS(=O)(=O)c3ccc(C(F)(F)F)cn3)c2)C(=O)O1` [Tipranavir, tipranavir], the “Inhibition of SARS-CoV-2 M^pro in cell culture” value [3] is reported as “failed to inhibit” and the IC50 [3, 8] is reported as > 200 µM.
For `NC(=O)c1ncn([C@@H]2O[C@H](CO)[C@@H](O)[C@H]2O)n1` [ribavirin], the “Concentration effective against SARS-associated coronavirus” value [7] is given as 50 µg/mL.
